Here are results for three compounds from patent US20240398728A1, “STERILE TOPICAL SALINE PUTRESCINE FORMULATION AND USES THEREOF” (VIVIER CANADA INC., priority 2018, published 2024).

The nature of data set [1]: Solubility of ingredients in water noted during manufacturing. It counts as physicochemical. The following applies: noted by Applicant during manufacturing.
Description: (§1) As such, a first heating step (to about 40 degrees Celsius) while stirring, together with the sequential addition of Allantoin followed by HPMC allowed to improve the manufacturing procedure. Propanediol was also shown to help solubilization of active ingredients in the mixture. […] Once applied on the skin, the alcohol rapidly evaporates and promotes adherence of the film forming agent (e.g., PVP) on the skin. The presence of alcohol also promotes evaporation of water. Finally, because the presence of sodium salt (saline) could interfere with active ingredients in the formulation, it is preferentially added at the end of the process.
as §1, with “the PVP (which forms a film)” for “the film forming agent (e.g., PVP)”, “also promoted” for “also promotes”, “it was” for “it is”, “process. […]” for “process.”

Data set [2] relates to epidermis of eroded skin. The following applies: topical; animals and human epidermis; cited from earlier work.
Data set [3] deals with fibroblast tissue transglutaminase (Homo sapiens, UniProt P21980). The following applies: in vitro and in vivo, topical, compared to controls; cited from earlier work.
Chain of fibroblast tissue transglutaminase (P21980 whole entry): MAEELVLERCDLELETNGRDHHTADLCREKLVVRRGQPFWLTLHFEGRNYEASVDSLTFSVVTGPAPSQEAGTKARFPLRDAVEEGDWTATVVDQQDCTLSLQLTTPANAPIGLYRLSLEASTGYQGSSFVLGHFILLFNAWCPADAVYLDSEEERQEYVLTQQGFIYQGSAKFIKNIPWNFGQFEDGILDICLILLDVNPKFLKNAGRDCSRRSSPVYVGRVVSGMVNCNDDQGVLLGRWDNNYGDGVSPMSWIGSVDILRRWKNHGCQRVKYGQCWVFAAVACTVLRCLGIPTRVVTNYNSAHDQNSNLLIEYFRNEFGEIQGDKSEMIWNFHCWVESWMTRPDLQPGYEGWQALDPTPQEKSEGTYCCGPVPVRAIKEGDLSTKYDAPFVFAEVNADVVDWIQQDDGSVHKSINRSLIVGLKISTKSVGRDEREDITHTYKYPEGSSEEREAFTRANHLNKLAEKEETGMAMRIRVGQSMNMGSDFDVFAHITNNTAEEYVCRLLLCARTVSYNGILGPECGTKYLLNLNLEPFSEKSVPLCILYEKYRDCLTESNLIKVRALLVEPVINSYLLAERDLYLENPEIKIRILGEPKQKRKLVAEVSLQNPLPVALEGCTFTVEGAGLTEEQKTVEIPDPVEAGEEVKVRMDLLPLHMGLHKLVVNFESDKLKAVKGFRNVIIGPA

Regarding `NC(=O)NC1NC(=O)NC1=O` (stereo not shown) [Allantoin], in data set [1], the solubility in water entry is “not very soluble in water”.

Take `NCCCCN` [putrescine, 1,4-diaminobutane]: in data set [2], the “effect on the epidermis of eroded skin (barrier function, thickness of the stratum lucidum)” value is “increasing its barrier function as well as the thickness of the stratum lucidum”. The collagen cross-linking entry in data set [3] is “reduce collagen cross-linking in vitro and in vivo”.

For the compound Alpha Bisabolol, the solubility in water result in data set [1] was “not to be very soluble in water”.
